Entries after “also recorded” stand apart in the source; their conditions may differ. Like-named read-outs stand apart in the source and are kept apart here.
Key:
human OCT1 [1] = target: T1, human OCT1 (Homo sapiens, UniProt O15245); design: expressed in transfected cells; method as in PMID 33037045, PMID 34040533; details: HEK293 stably transfected, 2 min, data previously published, ref [34], [35], cited from earlier work; for Km: read-out: KM ± SD, hOCT1
T1 sequence (O15245 1-554): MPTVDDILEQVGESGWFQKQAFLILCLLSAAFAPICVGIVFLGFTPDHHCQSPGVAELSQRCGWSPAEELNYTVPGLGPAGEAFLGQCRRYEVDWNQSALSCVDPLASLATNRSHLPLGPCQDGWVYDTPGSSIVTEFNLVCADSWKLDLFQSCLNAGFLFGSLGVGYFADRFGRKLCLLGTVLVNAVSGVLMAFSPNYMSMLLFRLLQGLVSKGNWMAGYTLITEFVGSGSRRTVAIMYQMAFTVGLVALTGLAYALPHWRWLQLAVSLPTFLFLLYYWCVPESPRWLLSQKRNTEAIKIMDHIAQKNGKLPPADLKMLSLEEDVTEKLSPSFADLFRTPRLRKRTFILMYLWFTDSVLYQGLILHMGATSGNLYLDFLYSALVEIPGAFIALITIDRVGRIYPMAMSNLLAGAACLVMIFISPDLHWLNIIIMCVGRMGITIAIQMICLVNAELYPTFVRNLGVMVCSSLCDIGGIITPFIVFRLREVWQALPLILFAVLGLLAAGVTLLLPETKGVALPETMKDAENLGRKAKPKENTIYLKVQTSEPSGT

mouse Oct1 [2] = target: T2, mouse Oct1 (Mus musculus, UniProt O08966); design: expressed in transfected cells; method as in PMID 33037045, PMID 34040533; details: HEK293 stably transfected, 2 min, data previously published, ref [34], [35], cited from earlier work; for Km: read-out: KM ± SD, mOct1
T2 sequence (O08966 1-556): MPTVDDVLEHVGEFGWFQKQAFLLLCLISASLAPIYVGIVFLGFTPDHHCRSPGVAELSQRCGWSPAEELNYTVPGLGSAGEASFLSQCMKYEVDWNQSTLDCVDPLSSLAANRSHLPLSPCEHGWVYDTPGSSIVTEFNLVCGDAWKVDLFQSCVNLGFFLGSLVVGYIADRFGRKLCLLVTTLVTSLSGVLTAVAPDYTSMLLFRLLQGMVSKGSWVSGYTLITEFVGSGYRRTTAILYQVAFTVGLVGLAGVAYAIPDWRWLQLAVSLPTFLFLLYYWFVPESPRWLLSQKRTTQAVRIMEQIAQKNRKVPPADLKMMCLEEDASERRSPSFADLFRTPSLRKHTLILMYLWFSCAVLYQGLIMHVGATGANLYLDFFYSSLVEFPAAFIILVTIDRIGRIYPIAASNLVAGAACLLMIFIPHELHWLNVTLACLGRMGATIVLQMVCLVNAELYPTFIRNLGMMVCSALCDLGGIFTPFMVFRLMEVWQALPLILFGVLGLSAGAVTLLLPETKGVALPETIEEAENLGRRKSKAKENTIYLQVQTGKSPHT

human OCT1 [3] = target: T1, human OCT1; test: Cellular uptake by HEK293 cells overexpressing human OCT1 (wildtype); details: for transport by human OCT1 (saturability): concentration-dependent uptake, stably transfected HEK293, 2 min
Method: (§1) Generation and characterization of these cell lines has been described in detail before ([34], [48], [49]). Cells were cultured in Dulbecco’s Modified Eagle’s Medium supplemented with 10% fetal bovine serum, 100 U/ml penicillin, and 100 μg/ml streptomycin at 37 °C and 5% CO2 and were passaged twice a week.
(§2) At 48 h prior to the experiment, 6 × 10^5 cells were seeded per well in 12-well plates. When using transiently transfected cells, 5 × 10^5 T-REx-293 cells (Life Technologies) were seeded per well in 12-well plates 72 h prior to the experiment, and they were transfected 24 h later as described previously. Twelve-well plates were precoated with poly-D-lysine.
(§3) Cellular uptake experiments were performed at 37 °C and pH 7.4 using HBSS supplemented with 10 mM Hepes (in the following referred to as HBSS+). Cells were washed with 1 ml prewarmed (37 °C) HBSS+, and the uptake was initiated by adding 400 μl of prewarmed HBSS+ containing the substrate. Uptake was allowed for exactly 2 min and afterward stopped by adding 2 ml ice-cold HBSS+. Cells were washed twice with 2 ml ice-cold HBSS+ and lysed with 80% acetonitrile supplemented with internal standard, 0.1 N NaOH/0.1% SDS, or radioimmunoprecipitation buffer for LC–MS/MS, liquid scintillation counting, or fluorescence spectroscopy detection, respectively. Intracellular substrate concentrations were measured as described in the following and were then normalized to the amount of total protein in the samples as measured using the bicinchoninic acid assay ([51]).
(§4) For LC–MS/MS quantification of intracellular substrate concentrations, the cell lysate was centrifuged at 16,000g for 15 min, and 350 μl of supernatant was evaporated to dryness under nitrogen flow at 40 °C. The sample was reconstituted with 200 μl 0.1% formic acid, and between 2 and 30 μl were injected into the LC–MS/MS system (Table S1).
(§5) An API4000 QTRAP tandem mass spectrometer with ESI interface (AB SCIEX) was used, coupled to a Shimadzu Nexera X2 UHPLC system with LC 30AD pumps and SiL 30AC autosampler (Shimadzu).
(§6) Intracellular concentrations of radioactively labeled substrates MPP^+ and TEA^+ were quantified using liquid scintillation counting. To this end, 400 μl cell lysate was transferred into a 20 ml scintillation vial, 9 ml Aquasafe 500 Plus liquid scintillator (both Zinsser Analytics) was added, and the sample was measured in the Scintillation Counter LS6500 (Beckman Coulter).
(§7) For both analyses, SPSS Statistics, version 28 (SPSS, Inc, IBM) was used.

mouse Oct1 [4] = target: T2, mouse Oct1; test: Cellular uptake by HEK293 cells overexpressing mouse Oct1 (wildtype)
Method: as §1, §2, §3, §4, §5, §6, §7

[5] = ASP^+ by fluorescence spectroscopy, HEK293 stably transfected, 2 min
[6] = read-out: KM ± SD, hOCT1, HEK293 stably transfected, 2 min uptake, 37 °C, pH 7.4
[7] = HEK293 stably transfected, 2 min uptake, 37 °C, pH 7.4, OCT1-mediated uptake
[8] = human versus mouse OCT1, stably transfected HEK293

## Cc1ncc(C[n+]2csc(CCO)c2C)c(N)n1 [Thiamine]
Human OCT1 [1]
  vmax ± SD, hOCT1: 8261 ± 3720 pmol × min^−1 × mg protein^−1
  Km: 1060 ± 341 µM
Mouse Oct1 [2]
  vmax ± SD, mOct1: 3712 ± 1031 pmol × min^−1 × mg protein^−1
  Km: 143 ± 96.3 µM

## CN(C)c1ccc(C=Cc2cc[n+](C)cc2)cc1 [ASP^+, 4-(4-(dimethylamino)styryl)-N-methylpyridinium]
Human OCT1 [3]; [5]
  vmax ± SD, hOCT1: 361,671 ± 2974 RFU × min^−1 × mg protein^−1
Human OCT1 [3]; [6]
  Km: 63 ± 15.3 µM
Mouse Oct1 [4]; [5]
  vmax ± SD, mOct1: 53,802 ± 7155 RFU × min^−1 × mg protein^−1
Mouse Oct1 [4]; read-out: KM ± SD, mOct1, HEK293 stably transfected, 2 min uptake, 37 °C, pH 7.4
  Km: 12.8 ± 2.97 µM

## COc1ccc(CC(C)NCC(O)c2ccc(O)c(NC=O)c2)cc1 (centres unmarked) [Formoterol]
Human OCT1 [3]; [7]
  vmax ± SD, hOCT1: 434 ± 111 pmol × min^−1 × mg protein^−1
Mouse Oct1 [4]; [7]
  vmax ± SD, mOct1: 1458 ± 317 pmol × min^−1 × mg protein^−1

## CC(CCc1ccc(O)cc1)NCC(O)c1ccc(O)cc1 (centres unmarked) [Ractopamine]
Human OCT1 [3]; [8]
  fold higher affinity (KM) of human than of mouse OCT1: comparable between human and mouse OCT1

## NC[C@H](O)c1ccc(O)c(O)c1 [Noradrenaline]
Human OCT1 [3]
  transport by human OCT1 (saturability): lacked any saturable transport

## C[N+](C)(C)CCO [Choline]
Human OCT1 [3]
  transport by human OCT1 (saturability): lacked any saturable transport; also recorded: not transported at all

## C[N@+]1(CC2CC2)CC[C@]23c4c5ccc(O)c4O[C@H]2C(=O)CC[C@@]3(O)[C@H]1C5 [Methylnaltrexone]
Mouse Oct1 [4]; [7]
  vmax ± SD, mOct1: 414 ± 130 pmol × min^−1 × mg protein^−1

## [H]/N=C(/N)N/C(=N/[H])NCCc1ccccc1 [Phenformin]
Human OCT1 [3]; human, pH 7.4
  CLint ± SD, hOCT1: 106 ± 22.8 μl × min^−1 × mg protein^−1
Mouse Oct1 [4]; mouse, pH 7.4
  CLint ± SD, mOct1: 143 ± 26.2 μl × min^−1 × mg protein^−1

## CC(C)C(=O)O[C@H](CC(=O)[O-])C[N+](C)(C)C [IBC, isobutyryl-L-carnitine]
Human OCT1 [3]
  transport by human OCT1 (saturability): not transported at all
Human OCT1 [3]; listed as isobutyryl-L-carnitine (IBC)
  transport by human OCT1 (saturability): lacked any saturable transport
Mouse Oct1 [2]
  vmax ± SD, mOct1: 8366 ± 1705 pmol × min^−1 × mg protein^−1
  Km: 1380 ± 356 µM

## CC(NCCc1ccc(O)cc1)C(O)c1ccc(O)cc1 (centres unmarked) [Ritodrine]
Human OCT1 [3]; [8]
  fold higher affinity (KM) of human than of mouse OCT1: ~10 fold

## CC[N+](CC)(CC)CC [TEA^+, tetraethylammonium]
Human OCT1 [3]
  CLint ± SD, hOCT1: 6.31 ± 2.45 μl × min^−1 × mg protein^−1
Human OCT1 [3]; pH 7.4
  Km: 749 ± 438 µM
  vmax ± SD, hOCT1: 4207 ± 1511 pmol × min^−1 × mg protein^−1
Mouse Oct1 [4]
  CLint ± SD, mOct1: 27.6 ± 9.72 μl × min^−1 × mg protein^−1
Mouse Oct1 [4]; pH 7.4
  Km: 305 ± 141 µM
  vmax ± SD, mOct1: 7764 ± 2883 pmol × min^−1 × mg protein^−1

## C[N+]1(C)[C@@H]2C[C@@H](OC(=O)C(O)(c3cccs3)c3cccs3)C[C@H]1[C@@H]1O[C@@H]12 [Tiotropium]
Human OCT1 [3]; human, pH 7.4
  Km: 7.82 ± 1.77 µM
Human OCT1 [3]; pH 7.4
  vmax ± SD, hOCT1: 836 ± 322 pmol × min^−1 × mg protein^−1
Mouse Oct1 [4]; mouse, pH 7.4
  Km: 1.47 ± 0.12 µM
Mouse Oct1 [4]; pH 7.4
  vmax ± SD, mOct1: 285 ± 87.1 pmol × min^−1 × mg protein^−1

## C[n+]1ccc(-c2ccccc2)cc1 [MPP^+, 1-methyl-4-phenylpyridinium]
Human OCT1 [3]; [7]
  vmax ± SD, hOCT1: 3112 ± 419 pmol × min^−1 × mg protein^−1
Human OCT1 [3]; [6]
  Km: 71.1 ± 17.3 µM
Mouse Oct1 [4]
  CLint ± SD, mOct1: 80.8 ± 12.1 μl × min^−1 × mg protein^−1
Mouse Oct1 [4]; pH 7.4
  Km: 24.4 ± 7.95 µM
  vmax ± SD, mOct1: 1910 ± 450 pmol × min^−1 × mg protein^−1

## CC(C)NCC(O)c1cc(O)cc(O)c1 (centres unmarked) [Orciprenaline]
Human OCT1 [3]; [8]
  fold lower affinity (KM) of human OCT1 than mouse Oct1 (higher affinity of mouse Oct1): more than sixfold higher affinity of mouse Oct1

## CN(C)C(=N)N=C(N)N [Metformin]
Human OCT1 [1]
  vmax ± SD, hOCT1: 14,703 ± 4346 pmol × min^−1 × mg protein^−1
  Km: 2200 ± 1150 µM
Mouse Oct1 [2]
  vmax ± SD, mOct1: 17,496 ± 7097 pmol × min^−1 × mg protein^−1
  Km: 491 ± 155 µM
